Values quoted from earlier work as cited in US20090270472A1, “METHOD TO USE OXYMETAZOLINE TO INTERRUPT THE DEVELOPMENT OF THE COMMON COLD SYNDROME” (priority 2008, published 2009).

Conditions: subjects with acute rhinitis; six (6) days with saline placebo

In the case of `Cc1cc(C(C)(C)C)c(O)c(C)c1CC1=NCCN1` [oxymetazoline], the duration of rhinitis is given as 4 days.
